How the values were obtained:
[1] = target: Dual specificity tyrosine-phosphorylation-regulated kinase 1A (Homo sapiens) (UniProt Q13627); conditions: Compound concentration 1000.0 nM
[2] = target: TGF-beta receptor type-2 (Homo sapiens) (UniProt P37173); conditions: Compound concentration 1000.0 nM
[3] = target: Microtubule-associated serine/threonine-protein kinase 1 (Homo sapiens) (UniProt Q9Y2H9); conditions: Compound concentration 1000.0 nM
[4] = target: Tyrosine-protein kinase ABL1 (Homo sapiens) (UniProt P00519); conditions: Compound concentration 1000.0 nM
[5] = test system: Receptor-type tyrosine-protein kinase FLT3 (Homo sapiens), P36888 [UNDEFINED MUTATION]; conditions: Compound concentration 1000.0 nM
[6] = target: Hepatocyte growth factor receptor (Homo sapiens) (UniProt P08581); conditions: Compound concentration 1000.0 nM
[7] = target: Sodium-dependent serotonin transporter (Homo sapiens) (UniProt P31645); conditions: Compound concentration 10.0 uM
[8] = target: Histamine H4 receptor (Homo sapiens) (UniProt Q9H3N8); conditions: Compound concentration 10.0 uM
[9] = target: Tyrosine-protein kinase ZAP-70 (Homo sapiens) (UniProt P43403); conditions: Compound concentration 1000.0 nM
[10] = target: Myosin light chain kinase, smooth muscle (Homo sapiens) (UniProt Q15746); conditions: Compound concentration 1000.0 nM
[11] = target: Calcium/calmodulin-dependent protein kinase kinase 1 (Homo sapiens) (UniProt Q8N5S9); conditions: Compound concentration 1000.0 nM
[12] = target: NUAK family SNF1-like kinase 2 (Homo sapiens) (UniProt Q9H093); conditions: Compound concentration 1000.0 nM
[13] = target: Tyrosine-protein kinase JAK3 (Homo sapiens) (UniProt P52333); conditions: Compound concentration 1000.0 nM
[14] = target: Mitogen-activated protein kinase kinase kinase 10 (Homo sapiens) (UniProt Q02779); conditions: Compound concentration 1000.0 nM
[15] = target: Tyrosine-protein kinase Lck (Homo sapiens) (UniProt P06239); conditions: Compound concentration 1000.0 nM
[16] = target: Histamine H3 receptor (Homo sapiens) (UniProt Q9Y5N1); conditions: Compound concentration 10.0 uM
[17] = target: 3-phosphoinositide-dependent protein kinase 1 (Homo sapiens) (UniProt O15530); conditions: Compound concentration 1000.0 nM
[18] = target: cGMP-dependent protein kinase 1 (Homo sapiens) (UniProt Q13976); conditions: Compound concentration 1000.0 nM
[19] = target: Serine/threonine-protein kinase 3 (Homo sapiens) (UniProt Q13188); conditions: Compound concentration 1000.0 nM
[20] = target: Fibroblast growth factor receptor 4 (Homo sapiens) (UniProt P22455); conditions: Compound concentration 1000.0 nM
[21] = target: Activin receptor type-2A (Homo sapiens) (UniProt P27037); conditions: Compound concentration 1000.0 nM
[22] = target: Muscarinic acetylcholine receptor M4 (Homo sapiens) (UniProt P08173); conditions: Compound concentration 10.0 uM
[23] = target: Ephrin type-A receptor 7 (Homo sapiens) (UniProt Q15375); conditions: Compound concentration 1000.0 nM
[24] = target: Serine/threonine-protein kinase TAO3 (Homo sapiens) (UniProt Q9H2K8); conditions: Compound concentration 1000.0 nM
[25] = target: Cyclin-dependent kinase 3 (Homo sapiens) (UniProt Q00526); conditions: Compound concentration 1000.0 nM
[26] = target: Ephrin type-A receptor 1 (Homo sapiens) (UniProt P21709); conditions: Compound concentration 1000.0 nM
[27] = test system: Epidermal growth factor receptor (Homo sapiens), P00533 [UNDEFINED MUTATION]; conditions: Compound concentration 1000.0 nM
[28] = target: Serine/threonine-protein kinase SIK2 (Homo sapiens) (UniProt Q9H0K1); conditions: Compound concentration 1000.0 nM
[29] = target: Dual specificity tyrosine-phosphorylation-regulated kinase 2 (Homo sapiens) (UniProt Q92630); conditions: Compound concentration 1000.0 nM
[30] = target: Platelet-derived growth factor receptor beta (Homo sapiens) (UniProt P09619); conditions: Compound concentration 1000.0 nM
[31] = target: Ribosomal protein S6 kinase alpha-2 (Homo sapiens) (UniProt Q15349); conditions: Compound concentration 1000.0 nM
[32] = target: Ribosomal protein S6 kinase alpha-4 (Homo sapiens) (UniProt O75676); conditions: Compound concentration 1000.0 nM
[33] = target: Tyrosine-protein kinase SYK (Homo sapiens) (UniProt P43405); conditions: Compound concentration 1000.0 nM
[34] = target: Tyrosine-protein kinase Blk (Homo sapiens) (UniProt P51451); conditions: Compound concentration 1000.0 nM
[35] = target: Ephrin type-B receptor 1 (Homo sapiens) (UniProt P54762); conditions: Compound concentration 1000.0 nM
[36] = target: Cyclin-G-associated kinase (Homo sapiens) (UniProt O14976); conditions: Compound concentration 1000.0 nM
[37] = test system: Epidermal growth factor receptor (Homo sapiens), P00533 [L858R]; conditions: Compound concentration 1000.0 nM
[38] = target: Protein kinase C iota type (Homo sapiens) (UniProt P41743); conditions: Compound concentration 1000.0 nM
[39] = target: Protein kinase C epsilon type (Homo sapiens) (UniProt Q02156); conditions: Compound concentration 1000.0 nM
[40] = target: Proto-oncogene tyrosine-protein kinase ROS (Homo sapiens) (UniProt P08922); conditions: Compound concentration 1000.0 nM
[41] = target: Serine/threonine-protein kinase WNK4 (Homo sapiens) (UniProt Q96J92); conditions: Compound concentration 1000.0 nM
[42] = target: Ephrin type-A receptor 3 (Homo sapiens) (UniProt P29320); conditions: Compound concentration 1000.0 nM
[43] = target: Serine/threonine-protein kinase MRCK beta (Homo sapiens) (UniProt Q9Y5S2); conditions: Compound concentration 1000.0 nM
[44] = target: Serine/threonine-protein kinase Sgk2 (Homo sapiens) (UniProt Q9HBY8); conditions: Compound concentration 1000.0 nM
[45] = target: RAC-beta serine/threonine-protein kinase (Homo sapiens) (UniProt P31751); conditions: Compound concentration 1000.0 nM
[46] = test system: Tyrosine-protein kinase ABL1 (Homo sapiens), P00519 [H396P]; conditions: Compound concentration 1000.0 nM

Sequence of Mitogen-activated protein kinase kinase kinase 10 (Homo sapiens) (Q02779 whole entry, looked up): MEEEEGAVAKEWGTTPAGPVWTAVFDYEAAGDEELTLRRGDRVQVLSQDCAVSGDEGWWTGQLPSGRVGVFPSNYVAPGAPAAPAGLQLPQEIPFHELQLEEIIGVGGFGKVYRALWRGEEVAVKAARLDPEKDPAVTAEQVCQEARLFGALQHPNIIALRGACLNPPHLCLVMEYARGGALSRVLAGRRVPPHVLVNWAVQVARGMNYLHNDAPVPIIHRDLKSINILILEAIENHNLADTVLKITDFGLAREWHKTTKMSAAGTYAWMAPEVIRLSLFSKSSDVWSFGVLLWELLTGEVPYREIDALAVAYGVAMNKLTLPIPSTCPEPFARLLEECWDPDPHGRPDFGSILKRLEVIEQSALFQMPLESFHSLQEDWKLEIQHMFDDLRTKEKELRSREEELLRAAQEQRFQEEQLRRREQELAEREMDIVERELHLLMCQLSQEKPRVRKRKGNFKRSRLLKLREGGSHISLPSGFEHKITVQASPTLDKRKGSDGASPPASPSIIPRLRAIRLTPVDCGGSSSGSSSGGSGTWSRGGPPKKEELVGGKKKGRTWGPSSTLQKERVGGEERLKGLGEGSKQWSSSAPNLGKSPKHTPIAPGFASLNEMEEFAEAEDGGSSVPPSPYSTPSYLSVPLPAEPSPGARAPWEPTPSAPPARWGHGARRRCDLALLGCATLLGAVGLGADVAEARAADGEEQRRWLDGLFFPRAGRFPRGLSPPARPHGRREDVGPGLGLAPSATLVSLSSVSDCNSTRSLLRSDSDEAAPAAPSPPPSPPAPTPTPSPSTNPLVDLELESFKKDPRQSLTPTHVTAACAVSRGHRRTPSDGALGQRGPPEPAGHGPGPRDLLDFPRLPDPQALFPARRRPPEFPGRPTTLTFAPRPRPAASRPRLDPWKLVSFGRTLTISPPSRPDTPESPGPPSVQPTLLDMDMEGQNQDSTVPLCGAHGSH
Sequence of Histamine H3 receptor (Homo sapiens) (Q9Y5N1 whole entry): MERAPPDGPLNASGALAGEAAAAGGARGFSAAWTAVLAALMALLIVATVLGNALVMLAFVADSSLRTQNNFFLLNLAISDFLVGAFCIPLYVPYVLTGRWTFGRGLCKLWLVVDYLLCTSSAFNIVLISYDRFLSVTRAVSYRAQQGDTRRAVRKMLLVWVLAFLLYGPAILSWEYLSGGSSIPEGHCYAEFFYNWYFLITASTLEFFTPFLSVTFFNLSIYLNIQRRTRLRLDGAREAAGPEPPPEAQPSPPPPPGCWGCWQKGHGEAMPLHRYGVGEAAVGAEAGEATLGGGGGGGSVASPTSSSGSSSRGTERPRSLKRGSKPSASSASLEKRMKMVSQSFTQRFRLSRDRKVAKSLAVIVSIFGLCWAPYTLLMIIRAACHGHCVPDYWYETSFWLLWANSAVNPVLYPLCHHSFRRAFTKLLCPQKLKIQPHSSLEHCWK
Sequence of Fibroblast growth factor receptor 4 (Homo sapiens) (P22455 22-802 limits assumed): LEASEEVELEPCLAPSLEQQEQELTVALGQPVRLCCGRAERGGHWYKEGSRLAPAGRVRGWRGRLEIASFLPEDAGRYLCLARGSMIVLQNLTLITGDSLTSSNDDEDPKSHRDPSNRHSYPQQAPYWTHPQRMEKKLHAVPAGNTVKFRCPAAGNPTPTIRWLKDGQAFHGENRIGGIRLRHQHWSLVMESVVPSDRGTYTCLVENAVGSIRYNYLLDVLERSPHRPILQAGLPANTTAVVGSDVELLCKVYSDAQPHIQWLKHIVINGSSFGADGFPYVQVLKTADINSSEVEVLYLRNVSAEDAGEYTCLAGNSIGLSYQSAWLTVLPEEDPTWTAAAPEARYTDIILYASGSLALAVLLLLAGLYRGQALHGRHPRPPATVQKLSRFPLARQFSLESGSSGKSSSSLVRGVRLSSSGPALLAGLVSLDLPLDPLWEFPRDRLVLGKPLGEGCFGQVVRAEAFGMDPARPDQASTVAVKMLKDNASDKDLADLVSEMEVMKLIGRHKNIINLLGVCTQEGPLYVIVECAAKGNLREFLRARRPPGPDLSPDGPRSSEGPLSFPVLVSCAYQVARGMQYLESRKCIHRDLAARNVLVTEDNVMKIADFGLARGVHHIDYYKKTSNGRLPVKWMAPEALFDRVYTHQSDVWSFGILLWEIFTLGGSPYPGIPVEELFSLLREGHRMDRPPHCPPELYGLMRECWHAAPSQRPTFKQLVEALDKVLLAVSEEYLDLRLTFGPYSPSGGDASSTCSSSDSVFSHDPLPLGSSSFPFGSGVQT
Sequence of Receptor-type tyrosine-protein kinase FLT3 (Homo sapiens), P36888 [UNDEFINED MUTATION] (P36888 whole entry, looked up, change not shown): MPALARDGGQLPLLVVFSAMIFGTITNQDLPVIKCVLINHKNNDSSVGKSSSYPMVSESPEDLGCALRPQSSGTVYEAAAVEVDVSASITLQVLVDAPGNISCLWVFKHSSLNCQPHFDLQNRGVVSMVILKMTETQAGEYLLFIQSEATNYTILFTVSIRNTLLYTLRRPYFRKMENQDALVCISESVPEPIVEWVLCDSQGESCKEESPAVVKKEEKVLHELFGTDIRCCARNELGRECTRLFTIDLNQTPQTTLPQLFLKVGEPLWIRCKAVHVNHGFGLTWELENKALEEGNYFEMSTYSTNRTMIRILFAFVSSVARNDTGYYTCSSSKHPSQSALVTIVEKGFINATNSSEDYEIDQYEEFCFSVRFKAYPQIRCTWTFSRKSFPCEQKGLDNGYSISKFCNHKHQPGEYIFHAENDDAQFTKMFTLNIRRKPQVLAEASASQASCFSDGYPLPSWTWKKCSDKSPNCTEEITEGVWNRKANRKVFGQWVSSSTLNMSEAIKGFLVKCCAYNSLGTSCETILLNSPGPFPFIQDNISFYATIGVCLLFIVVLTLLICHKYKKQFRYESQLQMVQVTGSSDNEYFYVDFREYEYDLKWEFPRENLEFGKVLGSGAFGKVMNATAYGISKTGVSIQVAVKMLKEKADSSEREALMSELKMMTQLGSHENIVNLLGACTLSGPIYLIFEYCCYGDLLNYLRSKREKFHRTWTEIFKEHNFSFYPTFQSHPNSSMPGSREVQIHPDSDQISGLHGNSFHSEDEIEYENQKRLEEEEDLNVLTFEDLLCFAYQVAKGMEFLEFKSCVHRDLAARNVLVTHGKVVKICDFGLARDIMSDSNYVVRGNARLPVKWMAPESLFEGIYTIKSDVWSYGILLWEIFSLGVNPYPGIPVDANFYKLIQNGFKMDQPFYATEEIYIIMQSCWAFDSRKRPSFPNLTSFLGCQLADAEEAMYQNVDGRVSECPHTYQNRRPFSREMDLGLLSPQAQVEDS
Sequence of 3-phosphoinositide-dependent protein kinase 1 (Homo sapiens) (O15530 whole entry): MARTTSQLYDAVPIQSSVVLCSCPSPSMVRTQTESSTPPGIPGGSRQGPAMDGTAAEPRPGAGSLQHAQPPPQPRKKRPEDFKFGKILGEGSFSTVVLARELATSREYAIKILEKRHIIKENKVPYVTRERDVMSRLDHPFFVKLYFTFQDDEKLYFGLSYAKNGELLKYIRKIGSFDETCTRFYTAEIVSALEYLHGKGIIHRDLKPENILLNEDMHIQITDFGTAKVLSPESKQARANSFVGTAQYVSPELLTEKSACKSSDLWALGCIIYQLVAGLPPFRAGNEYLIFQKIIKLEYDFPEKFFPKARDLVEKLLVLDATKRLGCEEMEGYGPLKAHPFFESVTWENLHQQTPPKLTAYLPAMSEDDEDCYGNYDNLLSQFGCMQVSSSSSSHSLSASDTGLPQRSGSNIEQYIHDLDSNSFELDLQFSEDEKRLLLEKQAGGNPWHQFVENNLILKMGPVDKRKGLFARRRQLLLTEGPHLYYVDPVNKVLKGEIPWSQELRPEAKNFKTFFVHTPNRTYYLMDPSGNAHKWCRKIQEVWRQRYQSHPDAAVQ
Sequence of Cyclin-G-associated kinase (Homo sapiens) (O14976 whole entry): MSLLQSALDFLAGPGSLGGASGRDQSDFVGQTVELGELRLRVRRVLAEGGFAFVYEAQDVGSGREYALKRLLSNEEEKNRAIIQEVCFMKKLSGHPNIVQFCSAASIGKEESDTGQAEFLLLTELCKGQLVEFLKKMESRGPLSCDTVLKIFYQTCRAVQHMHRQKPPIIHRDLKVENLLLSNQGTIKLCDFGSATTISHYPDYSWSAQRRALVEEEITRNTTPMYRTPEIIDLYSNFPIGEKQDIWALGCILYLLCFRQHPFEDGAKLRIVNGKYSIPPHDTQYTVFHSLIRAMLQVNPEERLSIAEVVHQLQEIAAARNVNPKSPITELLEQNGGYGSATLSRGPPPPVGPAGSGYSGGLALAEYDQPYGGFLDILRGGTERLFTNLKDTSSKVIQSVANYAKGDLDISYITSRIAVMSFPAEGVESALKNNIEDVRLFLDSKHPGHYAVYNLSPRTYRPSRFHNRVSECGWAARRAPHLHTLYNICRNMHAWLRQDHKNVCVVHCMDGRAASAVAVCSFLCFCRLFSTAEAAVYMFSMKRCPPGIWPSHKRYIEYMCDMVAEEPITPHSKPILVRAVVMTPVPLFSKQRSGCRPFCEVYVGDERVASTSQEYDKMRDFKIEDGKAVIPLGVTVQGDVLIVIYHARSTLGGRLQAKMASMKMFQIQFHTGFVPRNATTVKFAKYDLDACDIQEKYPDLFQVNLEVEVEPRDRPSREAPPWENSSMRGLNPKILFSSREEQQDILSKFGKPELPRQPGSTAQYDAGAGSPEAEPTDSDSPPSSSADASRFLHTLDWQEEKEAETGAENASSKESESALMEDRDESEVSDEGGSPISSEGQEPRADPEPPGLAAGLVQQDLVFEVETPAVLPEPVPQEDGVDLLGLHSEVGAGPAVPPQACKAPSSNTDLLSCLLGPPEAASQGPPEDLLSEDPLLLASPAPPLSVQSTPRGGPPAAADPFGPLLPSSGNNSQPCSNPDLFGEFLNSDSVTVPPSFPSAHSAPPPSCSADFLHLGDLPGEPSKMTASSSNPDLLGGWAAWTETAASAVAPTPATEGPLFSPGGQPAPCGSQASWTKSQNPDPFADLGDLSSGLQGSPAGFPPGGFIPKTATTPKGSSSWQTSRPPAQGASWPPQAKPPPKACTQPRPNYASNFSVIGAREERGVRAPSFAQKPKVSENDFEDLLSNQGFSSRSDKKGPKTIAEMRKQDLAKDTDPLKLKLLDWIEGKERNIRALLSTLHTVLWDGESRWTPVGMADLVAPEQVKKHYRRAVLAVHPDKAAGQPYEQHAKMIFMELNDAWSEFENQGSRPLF

Nc1cnc(N2CCc3cc(S(=O)(=O)Nc4c(F)cc(Cl)cc4F)cc(N4CCCC4=O)c32)nc1
inactive: residual activity [1] 80% | residual activity [2] 92% | residual activity [3] 97% | residual activity [4] 97% | residual activity [5] 100% | residual activity [6] 69% | inhibition [7] 9.34% | inhibition [8] -0.37% | residual activity [9] 85% | residual activity [10] 91% | residual activity [11] 100% | residual activity [12] 100% | residual activity [13] 100% | residual activity [14] 75% | residual activity [15] 100% | inhibition [16] -1.21% | residual activity [17] 98% | residual activity [18] 97% | residual activity [19] 96% | residual activity [20] 100% | residual activity [21] 67% | inhibition [22] 9.99% | residual activity [23] 85% | residual activity [24] 70% | residual activity [25] 100% | residual activity [26] 99% | residual activity [27] 100% | residual activity [28] 100% | residual activity [29] 89% | residual activity [30] 100% | residual activity [31] 88% | residual activity [32] 96% | residual activity [33] 100% | residual activity [34] 100% | residual activity [35] 92% | residual activity [36] 100% | residual activity [37] 85% | residual activity [38] 100% | residual activity [39] 100% | residual activity [40] 99% | residual activity [41] 100% | residual activity [42] 78% | residual activity [43] 95% | residual activity [44] 76% | residual activity [45] 100% | residual activity [46] 94%

Cn1nc(C(F)(F)F)cc1-c1cnc(N2CCc3cc(S(=O)(=O)Nc4c(F)cc(Cl)cc4F)cc(N4CCCC4=O)c32)nc1 [TP-020]
inactive: residual activity [1] 93% | residual activity [2] 81% | residual activity [3] 100% | residual activity [4] 95% | residual activity [5] 82% | residual activity [6] 100% | inhibition [7] 0.95% | inhibition [8] 10.9% | residual activity [9] 93% | residual activity [10] 100% | residual activity [11] 98% | residual activity [12] 89% | residual activity [13] 81% | residual activity [14] 93% | residual activity [15] 100% | inhibition [16] 0.43% | residual activity [17] 100% | residual activity [18] 87% | residual activity [19] 90% | residual activity [20] 69% | residual activity [21] 83% | inhibition [22] 41.2% | residual activity [23] 78% | residual activity [24] 93% | residual activity [25] 91% | residual activity [26] 100% | residual activity [27] 100% | residual activity [28] 100% | residual activity [29] 87% | residual activity [30] 90% | residual activity [31] 100% | residual activity [32] 85% | residual activity [33] 100% | residual activity [34] 100% | residual activity [35] 100% | residual activity [36] 94% | residual activity [37] 100% | residual activity [38] 94% | residual activity [39] 96% | residual activity [40] 100% | residual activity [41] 83% | residual activity [42] 94% | residual activity [43] 94% | residual activity [44] 100% | residual activity [45] 100% | residual activity [46] 81%

Source: ChEMBL document CHEMBL4507302, “Data for DCP probe TP-020” (2021)
